We go through four compounds from PubChem BioAssay AID1845216 (Molecular Pharmacology Branch, DTP, NCI, 2023).

The assay deals with SW 982 tumor spheroid viability. The assay can be described thus: Anticancer human tumor SW 982 cell line growth inhibition.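 For all read-outs here: spheroids exposed to compound for 7 days before readout.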 Conditions: spheroids with HUVEC and MSC; for viability, T/C: stronger effect = lower value. Put shortly: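 Complex tumor spheroids combined malignant cells with endothelial cells and mesenchymal stem cells. DNA-damaging drugs and DNA repair inhibitors were tested alone and in combination, at half-log dilutions down from clinical Cmax (top 10 microM if Cmax unknown), 0.25% DMSO final.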

Molecules are shown by their SMILES. Values joined by “and” are separate entries in the source; they are usually repeats but may differ in a detail not shown here. Identical values can stand only once. A value given as a limit tells only on which side of the number the result lay.

For the compound `CC(C)n1c(=O)n(C)c2cnc3cc(F)c(-c4ccc(OCCCN5CCCCC5)nc4)cc3c21` + Cn1nnc2c(C(N)=O)ncn2c1=O, the IC50 (commonly the concentration that gives 50% inhibition) reads like this: (curve of first compound, second compound 1 µM) greater than 10 µM; (curve of first compound, second compound 3.16 µM) 7.44 µM; (curve of first compound, second compound 10 µM) 4.91 µM; (curve of first compound, second compound 31.6 µM) 3.72 µM; (curve of first compound, second compound 100 µM) 1.88 µM. For the same compound, the viability, T/C (as a rule, the ratio of treated to control) (second compound 1 µM, first compound 0.0316 µM) is 91.7%; the viability, T/C (second compound 1 µM, first compound 0.1 µM) was 91.3%; the viability, T/C (second compound 1 µM, first compound 0.316 µM) is 91.5%; the viability, T/C (second compound 1 µM, first compound 1 µM) is 85.4%; the viability, T/C (second compound 1 µM, first compound 3.16 µM) was 68.1%; the viability, T/C (second compound 1 µM, first compound 10 µM) is 56.7%. Moreover, the viability, T/C is 91% (second compound 3.16 µM, first compound 0.0316 µM); 84% (second compound 3.16 µM, first compound 0.1 µM); 85.8% (second compound 3.16 µM, first compound 0.316 µM); 84.2% (second compound 3.16 µM, first compound 1 µM); 66.4% (second compound 3.16 µM, first compound 3.16 µM); 44.3% (second compound 3.16 µM, first compound 10 µM). Moreover, the viability, T/C is 75.2% (second compound 10 µM, first compound 0.0316 µM); 75.5% (second compound 10 µM, first compound 0.1 µM); 78.5% (second compound 10 µM, first compound 0.316 µM); 72.7% (second compound 10 µM, first compound 1 µM); 55.8% (second compound 10 µM, first compound 3.16 µM); 40.6% (second compound 10 µM, first compound 10 µM). The viability, T/C (second compound 31.6 µM, first compound 0.0316 µM) was 68.3%; the viability, T/C (second compound 31.6 µM, first compound 0.1 µM) is 70%; the viability, T/C (second compound 31.6 µM, first compound 0.316 µM) is 68.8%; the viability, T/C (second compound 31.6 µM, first compound 1 µM) is 62%; the viability, T/C (second compound 31.6 µM, first compound 3.16 µM) is 52.5%; the viability, T/C (second compound 31.6 µM, first compound 10 µM) was 35%. Also, the viability, T/C is, setting by setting: (second compound 100 µM, first compound 0.0316 µM) 55.1%; (second compound 100 µM, first compound 0.1 µM) 57.4%; (second compound 100 µM, first compound 0.316 µM) 55.2%; (second compound 100 µM, first compound 1 µM) 54%; (second compound 100 µM, first compound 3.16 µM) 46.4%; (second compound 100 µM, first compound 10 µM) 37%.

As for `[2H]c1nc(C)nc([2H])c1-c1cc(NC[C@@H](C)c2cccc3c(C(=O)NC)ccnc23)ncn1`, the viability, T/C is, setting by setting: (compound 0.0316 µM) 80.2% and 102% and 103%; (compound 0.1 µM) 91.6% and 101% and 97.5%; (compound 0.316 µM) 94% and 103% and 107%; (compound 1 µM) 96.9% and 96.7% and 114%; (compound 3.16 µM) 103% and 101% and 111%; (compound 10 µM) 103% and 94.8% and 108%. The IC50 (curve of compound) is greater than 10 µM.

As for `CC(C)n1c(=O)n(C)c2cnc3cc(F)c(-c4ccc(OCCCN5CCCCC5)nc4)cc3c21`, the viability, T/C runs as follows: (compound 0.0316 µM) 99% and 107% and 96.4%; (compound 0.1 µM) 87.8% and 104% and 101%; (compound 0.316 µM) 91.9% and 96% and 90.8%; (compound 1 µM) 87% and 91.9% and 71.7%; (compound 3.16 µM) 68.2% and 74.7% and 61.6%; (compound 10 µM) 34.8% and 48.2% and 35.8%. Further, the IC50 (curve of compound) was 5.95 µM and 9.44 µM and 4.93 µM.

Turning to `CNCc1ccc(-c2cc(-c3nc(-c4ccc(S(=O)(=O)C(C)C)cc4)cnc3N)on2)cc1` + CC[C@@]1(O)C(=O)OCc2c1cc1n(c2=O)Cc2cc3c(CN(C)C)c(O)ccc3nc2-1, the IC50 by setting is: (curve of first compound, second compound 0.003 µM) 0.207 µM; (curve of first compound, second compound 0.00949 µM) 0.207 µM; (curve of first compound, second compound 0.03 µM) 0.18 µM; (curve of first compound, second compound 0.0949 µM) 0.134 µM; (curve of first compound, second compound 0.3 µM) 0.0486 µM. In addition, the viability, T/C reads like this: (second compound 0.003 µM, first compound 0.00949 µM) 96.2%; (second compound 0.003 µM, first compound 0.03 µM) 91%; (second compound 0.003 µM, first compound 0.0949 µM) 66.1%; (second compound 0.003 µM, first compound 0.3 µM) 36.4%; (second compound 0.003 µM, first compound 0.949 µM) 33.8%; (second compound 0.003 µM, first compound 3 µM) 11.2%. Also, the viability, T/C by setting is: (second compound 0.00949 µM, first compound 0.00949 µM) 81.5%; (second compound 0.00949 µM, first compound 0.03 µM) 85.8%; (second compound 0.00949 µM, first compound 0.0949 µM) 69.5%; (second compound 0.00949 µM, first compound 0.3 µM) 37.8%; (second compound 0.00949 µM, first compound 0.949 µM) 28.6%; (second compound 0.00949 µM, first compound 3 µM) 12.7%. Also, the viability, T/C is 80% (second compound 0.03 µM, first compound 0.00949 µM); 79.1% (second compound 0.03 µM, first compound 0.03 µM); 61% (second compound 0.03 µM, first compound 0.0949 µM); 37.7% (second compound 0.03 µM, first compound 0.3 µM); 32.4% (second compound 0.03 µM, first compound 0.949 µM); 17.5% (second compound 0.03 µM, first compound 3 µM). Further, the viability, T/C runs as follows: (second compound 0.0949 µM, first compound 0.00949 µM) 83.3%; (second compound 0.0949 µM, first compound 0.03 µM) 75.9%; (second compound 0.0949 µM, first compound 0.0949 µM) 57.2%; (second compound 0.0949 µM, first compound 0.3 µM) 31.8%; (second compound 0.0949 µM, first compound 0.949 µM) 25.1%; (second compound 0.0949 µM, first compound 3 µM) 12.4%. For the same compound, the viability, T/C is, setting by setting: (second compound 0.3 µM, first compound 0.00949 µM) 53.1%; (second compound 0.3 µM, first compound 0.03 µM) 57.2%; (second compound 0.3 µM, first compound 0.0949 µM) 45.5%; (second compound 0.3 µM, first compound 0.3 µM) 23.8%; (second compound 0.3 µM, first compound 0.949 µM) 20.2%; (second compound 0.3 µM, first compound 3 µM) 6.34%.
